Source: US4547507A, “Benzothiopyranopyridinones” (Roussel Uclaf, priority 1982, dated 1985)
pIC50: −log10 of the molar value. Where a name gives a salt, the structure may show the parent alone.

What was measured:
[1] = target: rat striatal dopamine receptor (Rattus norvegicus, UniProt P61169); assay: Test A: [3H]Spiroperidol displacement from rat striatal dopamine receptor binding sites; details: rat striatal membranes, [3H]spiroperidol 0.19 nM, 37° C., 10 minutes, pH 7.6; read-out: Test A receptor DA IC50
Description: Test A--[^3 H Spiroperidol displacement from rat striatal dopamine receptor binding sites
(a) Radioligand--[phenyl-4-(n)-^3 H]Spiroperido (Amersham International, TRK 570, 21 Ci/mmol was used as a 1 μCi/1 μl solution in ethanol and this solution was diluted to 250 μCi in 1 ml of ethanol to produce a stock solution. This stock solution was diluted 3.2/10,000 in assay buffer and 0.1 ml volumes of this were added to 2 ml binding assays =0.19 nM [^3 H]spiroperidol and =[…]
(b) Assay buffer--The assay buffer was a modified 50 mM Tris HCl buffer with a pH of 7.6 containing the following additions: NaCl-120 mM, KCl-5 mM, MgCl2 -1 mM, CaCl2 -2 mM, Pargyline-10 μM and 1-Ascorbic Acid-0.1%
(c) Membrane preparation--The striata were dissected from male CFHB rats and homogenized in 20 volumes of ice cold 0.32M sucrose with a Teflon/glass homogenizer and the homogenate was centrifuged at 1000 g for 10 minutes. The resulting supernatant was recentrifuged at 30,000 g for 30 minutes and the supernatant was discarded and the pellet was resuspended by homogenization in 30 volumes of ice cold assay buffer.
(d) Non-specific binding--Non-specific binding was accounted for by the inclusion of 1 μM(+)butaclamol in blank binding assays which required a stock solution of 20 μM in distilled water.
(e) Displacing compounds--Solutions were prepared at 20x final assay concentration in distilled water.
(f) Binding assay protocol--1.3 ml assay buffer, 0.5 ml membrane suspension, 0.1 ml distilled H2 O or drug solution and 0.1 ml [^3 H]spiroperidol dilution Binding assays were made up in ice with the [^3 H]spiroperidol being added last and incubated at 37° C. for 10 minutes. The bound ligand was separated by filtration through Whatman GF/C filters under vacuum followed by 2×10 ml rinses of ice cold assay buffer. The filters were dried at 80° C. and counted in 5 ml volumes of ECONOFLUOR (NEN) scintillation cocktail. All binding assays, controls, blanks and each of four displacer concentration were run in triplicate. IC50 values (Test A) were obtained graphically from log dose versus percent inhibition of specific binding plots.

rat cortical α1 receptor = assay: Test B: [3H]Prazosin displacement from rat cortical α1 receptor binding sites; details: rat cerebral cortex membranes, [3H]prazosin 0.1 nM, 25° C., 30 minutes, pH 7.5
Description: Test B--[^3 H]Pyrazosin displacement from rat cortical α1 receptor binding sites (a) Radioligand--[^3 H]Prazosin (Amersham International, TRK 647, 28 Ci/mmole) was used as a 1 μCi/1 μl solution and this stock solution was diluted 1/18,000 in assay buffer and 0.1 ml volumes of this were added to 2 ml binding assay. =0.1 nM [^3 H]Prazosin and =0.0056 μCi/binding assay (b) Membrane preparation--The cerebral cortices were dissected from male CFHB rats and homogenized in 20 volumes of ice cold 0.32M sucrose using a Teflon/glass homogenizer and the homogenate was centrifuged at 1000 g for 10 minutes. The resulting pellet was discarded and the supernatant was recentrifuged at 30,000 g for 30 minutes. The supernatant was discarded and the pellet was resuspended by homogenization in 50 volumes of 50 mM pH 7.5 Tris HCl buffer (assay buffer). (c) Non-specific binding--Non-specific binding was accounted for by the inclusion of 100 μM 1-noradrenaline in blank binding assays which required a stock solution of 2 mM 1-noradrenaline made up fresh daily in 0.1% 1-ascorbic acid. (d) Displacing compounds--Solutions were prepared at 20x final assay concentration in distilled water. (e) Binding assay protocol--1.3 ml assay buffer, 0.5 ml membrane suspension, 0.1 ml distilled H2 O or drug solution and 0.1 ml [^3 H]pyrazosin dilution Binding assays were made up in ice with the [^3 H]pyrazosin being added last and incubated at 25° C. for 30 minutes. The bound ligand was separated by filtration through Whatman GF/C glass fibre filters under vacuum followed by 2×10 ml rinses of ice cold assay buffer. The filters were dried at 80° C. and counted in 5 ml volumes of ECONOFLUOR (NEN) scintillation cocktail. All binding assays, controls, blanks and each of four displacer concentrations were run in triplicate. IC50 values (Test B) were obtained graphically from log dose versus percent inhibition of specific binding plots.

rat cortical α2 receptor = assay: Test C: [3H]Dihydroergocryptine displacement from rat cortical α2 receptor binding sites; details: rat cortical membranes, [3H]dihydroergocryptine 0.45 nM, 25° C., 45 minutes in the dark; approximately 80% of binding is α2
Description: Test C--[^3 H]Dihydroergocryptine displacement from rat cortical α2 *receptor binding sites
(a) Radioligand--[9,10(n)-^3 H]9,10-Dihydroergocryptine (Amersham International, TRK 555, 17.5 Ci/mmole) was used as a 1 μCi/1 μl solution and this stock solution was diluted 1/6250 in assay buffer and 0.1 ml volumes of this were added to 2 ml binding assays. =0.45 nM and =0.016 μCi/binding assay
*In cortical membranes, [^3 H]dihydroergocryptine binds to both α1 and α2 receptor binding sites under the conditions of assay described here, approximately 80% of the binding is associated with α2 receptors.
(§1) (b) Membrane preparation--As for Test B
(c) Non-specific binding--As for Test B
(d) Displacing compounds--As for Test B
(e) Assay protocol--As for Test B with the exception that the binding assays were incubated at 25° C. for 45 minutes in the dark.

[2] = target: rat cortical muscarinic receptor; assay: Test D: [3H]Quinuclidinyl benzylate displacement from rat cortical muscarinic receptor binding sites; details: rat cortical membranes, [3H]quinuclidinyl benzylate 0.31 nM, 25° C., 60 minutes; read-out: Test D MUSC IC50
Description: Test D--[^3 H]Quinuclidinyl benzylate displacement from rat cortical muscarinic receptor binding sites
(a) Radioligand--DL-[3-^3 H]Quinuclidinyl benzylate (Amersham International, TRK 506, 12 Ci/mmol) was used as a 1 μCi/1 μl solution and this stock solution was diluted 1/13333 in assay buffer and 0.1 ml volumes of this were added to 2 ml binding assay =0.31 nM and =0.0075 μCi/binding assay
as §1
(c) Non-specific binding--Non-specific binding was accounted for by the inclusion of 100 μM oxotremorine sesquifumarate in blank binding assays and this required a stock solution of 2 mM in distilled H2 O.
(d) Displacement compounds--As for Test B
(e) Assay protocol--As for Test B with the exception that the binding assays were incubated at 25° C. for 60 minutes.

Sequence of rat striatal dopamine receptor (P61169 whole entry): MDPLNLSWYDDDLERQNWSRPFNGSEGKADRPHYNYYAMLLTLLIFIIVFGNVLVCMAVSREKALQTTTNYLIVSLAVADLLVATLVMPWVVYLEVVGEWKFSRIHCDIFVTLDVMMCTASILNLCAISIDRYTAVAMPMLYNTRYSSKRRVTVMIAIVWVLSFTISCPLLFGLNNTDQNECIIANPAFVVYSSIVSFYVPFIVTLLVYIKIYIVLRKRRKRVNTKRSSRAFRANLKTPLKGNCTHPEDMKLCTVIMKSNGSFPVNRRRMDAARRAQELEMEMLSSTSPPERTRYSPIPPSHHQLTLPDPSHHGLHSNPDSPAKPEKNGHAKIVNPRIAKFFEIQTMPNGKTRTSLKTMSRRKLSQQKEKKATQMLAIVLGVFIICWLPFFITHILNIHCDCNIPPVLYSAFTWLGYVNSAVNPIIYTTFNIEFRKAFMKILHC

SMILES | pIC50 [1] | pIC50 (rat cortical α1 receptor) | pIC50 (rat cortical α2 receptor) | pIC50 [2]
CCCCCN1CCc2sc3ccccc3c(=O)c2C1 [Example 17, 1,2,3,4-tetrahydro-2-n-pentyl-10H-(1)-benzothiopyrano[3,2-c]pyridin-10-one hydrochloride] | 7.15 | 6.51 | 7.15 | 4.40
N#CCCN1CCc2sc3ccccc3c(=O)c2C1 [Example 22, 2-(2-cyanoethyl)-1,2,3,4-tetrahydro-10H-(1)-benzothiopyrano[3,2-c]pyridin-10-one hydrochloride] | < 5.00 | < 5.00 | < 5.00 | < 4.00
CCN1CCc2sc3ccccc3c(=O)c2C1 [Example 13, 2-ethyl-1,2,3,4-tetrahydro-10H-(1)-benzothiopyrano[3,2-c]pyridin-10-one hydrochloride] | 6.00 | 5.82 | 6.54 | 4.35
O=c1c2c(sc3ccccc13)CCN(CC1CCCC1)C2 [Example 27, 2-cyclopentylmethyl-1,2,3,4-tetrahydro-10H-(1)-benzothiopyrano[3,2-c]pyridin-10-one] | 7.40 | 6.17 | 7.30 | 4.24
O=c1c2c(sc3ccccc13)CCN(CCO)C2 [Example 35] | 5.00 | 5.00 | 5.48 | 4.15
O=c1c2c(sc3ccccc13)CCN(CC1CCCCCC1)C2 [Example 28] | 6.82 | 5.55 | 6.49 | < 4.00
O=c1c2c(sc3ccccc13)CCN(Cc1ccccc1)C2 [Example 6, 2-benzyl-1,2,3,4-tetrahydro-10H-(1)-benzothiopyrano[3,2-c]pyridin-10-one hydrochloride] | 6.17 | 5.40 | 6.30 | < 4.00
O=c1c2c(sc3ccccc13)CCN(CC1CCC1)C2 [Example 26, 2-cyclobutylmethyl-1,2,3,4-tetrahydro-10H-(1)-benzothiopyrano[3,2-c]pyridin-10-one] | 7.22 | 6.16 | 7.30 | 4.30
O=C(CN1CCc2sc3ccccc3c(=O)c2C1)c1ccccc1 [Example 33] | < 5.00 | < 5.00 | < 5.00 | < 4.00
O=c1c2c(sc3ccccc13)CCNC2 [Example 1, 1,2,3,4-tetrahydro-10H-(1)-benzothiopyrano[3,2-c]pyridin-10-one hydrochloride] | 5.19 | 5.18 | 6.22 | 4.49
O=c1c2c(sc3ccccc13)CCN(CCC1CCCCC1)C2 [Example 30] | 6.74 | 5.94 | 6.72 | < 4.00
COc1ccc2sc3c(c(=O)c2c1)CNCC3 [Example 4, 1,2,3,4-tetrahydro-8-methoxy-10H-(1)-benzothiopyrano[3,2-c]pyridin-10-one hydrochloride] | < 5.00 | 5.11 | 5.54 | 4.24
COc1ccc2c(=O)c3c(sc2c1)CCNC3 [Example 3, 1,2,3,4-tetrahydro-7-methoxy-10H-(1)-benzothiopyrano[3,2-c]pyridin-10-one hydrochloride] | < 5.00 | < 5.00 | 5.37 | 4.57
O=c1c2c(sc3ccccc13)CCN(CCCn1c(=O)[nH]c3ccccc31)C2 [Example 36] | 7.52 | 6.72 | 6.82 | 4.35
O=c1c2c(sc3ccccc13)CCN(CC1CCCCC1)C2 [Example 20, 2-cyclohexylmethyl-1,2,3,4-tetrahydro-10H-(1)-benzothiopyrano[3,2-c]pyridin-10-one hydrochloride] | 8.00 | 5.57 | 6.64 | < 4.00
O=C(CCCN1CCc2sc3ccccc3c(=O)c2C1)c1ccc(F)cc1 [Example 16, 2-(4-p-fluorophenyl-4-oxobutyl)-1,2,3,4-tetrahydro-10H-(1)-benzothiopyrano-[3,2-c]pyridin-10-one hydrochloride] | 7.70 | 7.70 | 7.70 | < 4.00
